This note sets out measurements from publication PMC7343282, “Tissue Distribution of Several Series of Cationic Surfactants in Rainbow Trout (Oncorhynchus mykiss) Following Exposure via Water” (Environmental Science & Technology, 2020).

The structures appear in SMILES notation.

This data set deals with rainbow trout (Oncorhynchus mykiss). Put plainly: Tissue concentrations in rainbow trout after 7 d exposure via water (two mixtures). As to conditions: rainbow trout (Oncorhynchus mykiss), in vivo, 7 d; for Concentration in blood / Concentration in muscle / Concentration in skin, per surface area: pH 7.5. Type of data set: in vivo. The method, then: The study was conducted with rainbow trout (Oncorhynchus mykiss) weighing between 98 and 165 g. The fish were purchased from Nordic trout Sweden AB and held in the aquaria facility prior to the experiment in February 2018. Ethical approval for the experiments was obtained from Stockholms djurförsöksetiska nämnd (decision 9967-2017). The experiments were conducted in 300 L fiberglass aquaria with a water renewal rate of 1.3 L min^–1 (MIX 1) and 1.45 L min^–1 (MIX 2). The water temperature was 10 °C and the pH 7.5. The water hardness was estimated to be 1.1 mM Ca^2+ based on information from the water supplier. The aquaria water was circulated through a filter of polyester wool at 800–1200 L h^–1 with an Eheim 2273 Pro 4+ pump. The outflow from the filter pump was placed above the water surface, providing for aeration. The lighting was dim and programmed on a 12 h light/12 h dark cycle. The fish were fed fish food pellets supplied by the fish farm at 1.0% of their body weight per day.
A solution of the test chemical mixture in methanol was infused continuously (3.5 and 3.8 μL min^–1 for MIX 1 and MIX 2, respectively) into the water inflow using a syringe pump. The intended concentrations of the chemicals in water ranged from 2.5 to 50 μg L^–1 (Table 1). They were selected with the help of modeled estimates of the BCF that were based on reported and extrapolated membrane water partition coefficients[7] and biotransformation rate constants predicted with quantitative structure activity relationships (QSARs)[24],[25] to parameterize the BIONIC model.[26] Based on these estimates, we selected an exposure concentration which would result in concentrations in fish that were clearly above the limit of quantification (LOQ) of the analytical method, while trying to keep the quantifiable exposure concentration as low as possible to minimize the risk of toxic effects and micelle formation (see comparison of intended concentrations with available toxicological data in Table S4).
The surface of the fish posterior of the gills was rinsed with 100% methanol to remove test chemical residues adsorbed to the outer surface of the skin and absorbed in the skin mucus. […] The fish were dissected and the liver, the kidney, the gills, and the remaining contents of the abdominal cavity were taken and weighed. Skin and muscle samples were prepared from the upper dorsal region on semi-frozen fish after the methanol rinse had removed the mucus. The main part of the subcutaneous fat tissue was included in the muscle samples rather than in the skin samples. All samples were stored frozen at −20 °C until further analysis.
For 6 fish from each aquarium and 3 control fish, samples of muscle, skin, liver, and gills were homogenized in a bullet blender (muscle and liver) (MiniG, SPEXsamplePrep) or in a cryo-mill (skin and gill) (Mixer mill cryomill, Retsch GmbH). A sub-sample of 0.5–1.2 g of the homogenate was extracted twice in methanol (4 mL, 50 °C, ultra-sound, 60 min), employing centrifugation at 4000 rpm for phase separation. Further information on the extraction efficiency of this method can be found in the Supporting Information (Table S5 and accompanying text). Isotope labeled standards of Q10 (D21), Q14 (D29), and P16 (D33) were added to a portion of the extract corresponding to 12–75 mg of the sample. The extract volume was adjusted to 3 mL with methanol and then cleaned up on a weak cationic exchange SPE column (WCX, 60 mg, 30 μm particle size, waters). Solvent elution was performed by gravity flow. The column was conditioned with 2 mL of methanol, followed by 2 mL of Milli-Q water adjusted to pH 7 with ammonium hydroxide to activate the ion exchange. The sample extract was loaded onto the column, and it was subsequently rinsed with 20 mL of methanol.

`CCCCCCCCCCCCN` [P12, Dodecylamine]: the Concentration in gills is 20 000 (10) ng g^–1, the “Concentration in liver” value is listed as 42 000 (15) ng g^–1, the “Concentration in skin” value is recorded as 3900 (25) ng g^–1 and the “Concentration in blood” value is 770 (26) ng g^–1. Moreover, the “Concentration in muscle” value is listed as 630 (28) ng g^–1 and the “Concentration in skin, per surface area” value is 310 ng cm-2.
Take `CCCCCCCCCCCCCCCCN` [P16, hexadecylamine]: the Concentration in gills is on record as 8700 (15) ng g^–1, the “Concentration in liver” value was 5500 (10) ng g^–1, the “Concentration in skin” value is reported as 420 (25) ng g^–1 and the “Concentration in blood” value is on record as 130 (19) ng g^–1. Further, the “Concentration in muscle” value was 111 (22) ng g^–1 and the “Concentration in skin, per surface area” value worked out at 30 ng cm-2.
